SMILES strings stand for the structures.

The source of these data is PMC4298654, “In vivo formation of N-acyl-fumonisin B1” (Mycotoxin Research, 2014).

A short description of the series: In vivo formation of NAFB1 and NAHFB1 in rat kidney and liver (HPLC-ESI-MS/MS). The arrangement: N-acyl-derivative in tissue sample, analysis a / N-acyl-derivative in tissue sample, analysis b / N-acyl-derivative in tissue sample, mean: unit not given here. Particulars: 5 days. An excerpt: The study protocol was approved by the Institutional Animal Care and Use Committee, Richard B. Russell Agricultural Research Center, Athens, GA. Male Sprague–Dawley rats (Harlan Industries, Indianapolis, IN, USA), 7 weeks of age at receipt, were individually housed in stainless steel, wire mesh cages in an environmentally controlled room having a 12-h light/dark cycle. Food (2019 Global Rodent Diet, Teklad, Madison, WI, USA) and fresh tap water were provided ad libitum. After a 1 week acclimation period, the animals were randomly assigned to five groups (n = 2/group) having mean weights of 215 to 216 g (weight range of all animals, 211 to 220 g). For five consecutive days, they were observed, weighed, and given an intraperitoneal injection (ip) of 0 (vehicle), 0.5, 1.0, or 2.0 mg/kg body weight FB1 (provided by R. Eppley, US FDA), 1.0 mg/kg body weight HFB1 (positive control) (Voss et al. [2009]), or vehicle (0.9 % physiological saline). These doses corresponded to 0.69, 1.38, and 2.77 μmol FB1/kg body weight and 2.47 μmol/kg body weight HFB1 per day. In order to compare the effects of FB1 and HFB1, dosages will be expressed as molar concentrations and, on this basis, the high dose of FB1 is roughly equivalent to that of the positive control dose of HFB1. Dosing solutions were sterile filtered and administered at a volume rate of 10 ml/kg body weight. The animals were fasted overnight prior to administration of the final dose. The rats were euthanized (CO2 inhalation and exsanguination) 60 to 90 min following the final dose administration and examined by necropsy. The kidney and liver specimens were fixed in 10 % neutral buffered formalin, processed, and microscopically evaluated without knowledge of the animal’s identity or treatment group. Three representative liver and kidney specimens (100 mg each) were also collected, immediately frozen, and stored (−80 °C) until processed, at which time the tissues were thawed and homogenized in distilled/deionized water (1 ml water/100 mg tissue). The homogenates were lyophilized before they were shipped by overnight courier for the analysis of fumonisin metabolites and sphingolipids.
Lyophilized liver and kidney tissues (100 mg wet weight equivalents) were processed for the quantification of FB1, HFB1, NAFB1, NAHFB1, and sphingolipids. Preparation of the tissue samples was performed according to a previously published method (Harrer et al. [2013]). For the quantification of FB1 and HFB1, a d6-labeled derivative of FB1 (FB1-d6) was used as the internal standard. Synthetic derivatives with a heptadecanoic fatty acid (C17:0) residue were used as internal standards for the quantification of N-acyl-fumonisins and ceramides (N-C17:0-FB1, N-C17:0-HFB1, and N-C17:0-ceramide). The sphingoid bases and their phosphate derivatives were quantified using synthetic derivatives with a C17-acyl-backbone: sphingosine (C17:1), sphingosine-1-phosphate (C17:1), sphinganine (C17:0), sphinganine-1-phosphate (C17:0) as internal standards. The standards were dissolved in methanol:chloroform (2:1, v/v) and then mixed with the tissue samples. The samples spiked with internal standard were kept at room temperature for 30 min before being processed further. The internal standard-spiked samples were first extracted with ethyl acetate, isopropanol, and water (60:30:10, v/v/v) and a second time using methanol, chloroform, and water (60:30:10, v/v/v). The extracts were combined, the solvents removed by evaporation, and the dried samples stored at−80 °C till analyzed.
For the analysis, the samples were reconstituted in a mixture of water, methanol, and tetrahydrofurane (60:24:16, v/v/v). The NAFB1 and NAHFB1 derivatives having the following fatty acyl chain lengths were quantified by HPLC-MS/MS: C16:0, C18:0, C20:0, C22:0, C24:0, C26:0. Furthermore, we also quantified the unsaturated derivatives C24:1 and C26:1. The results are given as the sum of all N-acyl derivatives of FB1 or HFB1. […]

Setting [1] is: Kidney, treatment FB1 0,5 mg/kg BW ip.
Setting [2] is: Kidney, treatment FB1 1 mg/kg BW ip.
The mark [3] stands for this setting: Kidney, treatment FB1 2 mg/kg BW ip.
Where [4] appears, read: Kidney, treatment HFB1 1 mg/kg BW ip.
[5] abbreviates: Liver, treatment FB1 0,5 mg/kg BW ip.
Where [6] appears, read: Liver, treatment FB1 1 mg/kg BW ip.
The mark [7] stands for this setting: Liver, treatment FB1 2 mg/kg BW ip.
[8] abbreviates: Liver, treatment HFB1 1 mg/kg BW ip.

For the compound `CCCCCCCCCCCCCCCCCC(=O)N[C@@H](C)[C@@H](O)C[C@H](O)CCCC[C@@H](O)C[C@H](C)C[C@H](O)[C@H](O)[C@H](C)CCCC` [HFB1C18:0], the “N-acyl-derivative in tissue sample, analysis a” value (shortened to “N-acyl-derivative … analysis a”) reads like this: under setting [1], 0,1; under setting [2], 0,1; under setting [3], 0,0; under setting [4], 2,6; under setting [5], 0,3; under setting [6], 0,0. The “N-acyl-derivative … analysis a” value under setting [7] was 0,0 and the “N-acyl-derivative … analysis a” value under setting [8] is listed as 1,5. The “N-acyl-derivative in tissue sample, analysis b” value (“N-acyl-derivative … analysis b” for short) reads like this: under setting [1], 0,2; under setting [2], 0,0; under setting [3], 0,1; under setting [4], 1,8; under setting [5], 0,1; under setting [6], 0,0. Further, the “N-acyl-derivative … analysis b” value by setting is: under setting [7], 0,0; under setting [8], 2,0. The “N-acyl-derivative in tissue sample, mean” value is reported as 0,2 under setting [1]; 0,1 under setting [2]; 0,1 under setting [3]; 2,2 under setting [4]; 0,2 under setting [5]; 0,0 under setting [6]. Besides, the “N-acyl-derivative in tissue sample, mean” value reads like this: under setting [7], 0,0; under setting [8], 1,8.
In the case of `CCCCCCCC/C=C\CCCCCCCCCCCCCC(=O)N[C@@H](C)[C@@H](O)C[C@H](O)CCCC[C@@H](O)C[C@H](C)C[C@H](O)[C@H](O)[C@H](C)CCCC` [HFB1C24:1], the “N-acyl-derivative … analysis a” value under setting [1] is 0,0; the “N-acyl-derivative … analysis a” value under setting [2] is on record as 0,4; the “N-acyl-derivative … analysis a” value under setting [3] is recorded as 0,1; the “N-acyl-derivative … analysis a” value under setting [4] was 7,9; the “N-acyl-derivative … analysis a” value under setting [5] was 0,0; the “N-acyl-derivative … analysis a” value under setting [6] is listed as 0,0. In addition, the “N-acyl-derivative … analysis a” value is given as 0,4 under setting [7] and 156,0 under setting [8]. The “N-acyl-derivative … analysis b” value is listed as 0,0 under setting [1]; 0,0 under setting [2]; 0,0 under setting [3]; 10,8 under setting [4]; 0,0 under setting [5]; 0,1 under setting [6]. Further, the “N-acyl-derivative … analysis b” value reads like this: under setting [7], 0,0; under setting [8], 140,5. For the same compound, the “N-acyl-derivative in tissue sample, mean” value runs as follows: under setting [1], 0,0; under setting [2], 0,2; under setting [3], 0,0; under setting [4], 9,3; under setting [5], 0,0; under setting [6], 0,1. For the same compound, the “N-acyl-derivative in tissue sample, mean” value by setting is: under setting [7], 0,2; under setting [8], 148,3.
With `CCCCCCCCCCCCCCCC(=O)NC(C)C(O)CC(O)CCCCC(O)CC(C)CC(OC(=O)CC(CC(=O)O)C(=O)O)C(OC(=O)CC(CC(=O)O)C(=O)O)C(C)CCCC` (stereo not shown) [FB1C16:0], the “N-acyl-derivative … analysis a” value is given as 7,4 under setting [1]; 14,4 under setting [2]; 12,1 under setting [3]; 0,0 under setting [4]; 6,8 under setting [5]; 3,9 under setting [6]. Further, the “N-acyl-derivative … analysis a” value is, setting by setting: under setting [7], 8,4; under setting [8], 0,0. For the same compound, the “N-acyl-derivative … analysis b” value was 9,1 under setting [1]; 12,6 under setting [2]; 13,8 under setting [3]; 0,0 under setting [4]; 5,1 under setting [5]; 6,4 under setting [6]. Moreover, the “N-acyl-derivative … analysis b” value runs as follows: under setting [7], 5,9; under setting [8], 0,0. For the same compound, the “N-acyl-derivative in tissue sample, mean” value by setting is: under setting [1], 8,2; under setting [2], 13,5; under setting [3], 13,0; under setting [4], 0,0; under setting [5], 6,0; under setting [6], 5,2. The “N-acyl-derivative in tissue sample, mean” value runs as follows: under setting [7], 7,1; under setting [8], 0,0.
In the case of `CCCCCCCCCCCCCCCCCC(=O)NC(C)C(O)CC(O)CCCCC(O)CC(C)CC(OC(=O)CC(CC(=O)O)C(=O)O)C(OC(=O)CC(CC(=O)O)C(=O)O)C(C)CCCC` (stereo not shown) [FB1C18:0], the “N-acyl-derivative … analysis a” value was 2,5 under setting [1]; 3,8 under setting [2]; 4,0 under setting [3]; 0,0 under setting [4]; 3,1 under setting [5]; 2,0 under setting [6]. For the same compound, the “N-acyl-derivative … analysis a” value is 3,0 under setting [7] and 0,0 under setting [8]. For the same compound, the “N-acyl-derivative … analysis b” value is, setting by setting: under setting [1], 2,9; under setting [2], 3,1; under setting [3], 2,8; under setting [4], 0,0; under setting [5], 2,4; under setting [6], 3,0. The “N-acyl-derivative … analysis b” value under setting [7] was 3,9 and the “N-acyl-derivative … analysis b” value under setting [8] is given as 0,0. Besides, the “N-acyl-derivative in tissue sample, mean” value is listed as 2,7 under setting [1]; 3,4 under setting [2]; 3,4 under setting [3]; 2,8 under setting [5]; 2,5 under setting [6]; 3,5 under setting [7].
